Laboratory results reported in ChEMBL document CHEMBL6114972, “Proteolysis targeting chimera of BI-2536 induces potent dual degradation of PLK1 and BET proteins” (Bioorg Med Chem, 2025).
pIC50: −log10 of the molar value. The source made the active and inactive calls. The calls are words filed in the database; no cut-off is given here.

How the values were obtained:
[1] = biological target: T1, Protein cereblon/Serine/threonine-protein kinase PLK1 (Homo sapiens, UniProt P53350+Q96SW2); test: Protac activity at CRBN/PLK1 in human HeLa cells assessed as PLK1 degradation at 10 nM measured after 36 hrs by Western blot analysis; assay type: cell-based
Target sequence in this assay (P53350 2-603 limits assumed): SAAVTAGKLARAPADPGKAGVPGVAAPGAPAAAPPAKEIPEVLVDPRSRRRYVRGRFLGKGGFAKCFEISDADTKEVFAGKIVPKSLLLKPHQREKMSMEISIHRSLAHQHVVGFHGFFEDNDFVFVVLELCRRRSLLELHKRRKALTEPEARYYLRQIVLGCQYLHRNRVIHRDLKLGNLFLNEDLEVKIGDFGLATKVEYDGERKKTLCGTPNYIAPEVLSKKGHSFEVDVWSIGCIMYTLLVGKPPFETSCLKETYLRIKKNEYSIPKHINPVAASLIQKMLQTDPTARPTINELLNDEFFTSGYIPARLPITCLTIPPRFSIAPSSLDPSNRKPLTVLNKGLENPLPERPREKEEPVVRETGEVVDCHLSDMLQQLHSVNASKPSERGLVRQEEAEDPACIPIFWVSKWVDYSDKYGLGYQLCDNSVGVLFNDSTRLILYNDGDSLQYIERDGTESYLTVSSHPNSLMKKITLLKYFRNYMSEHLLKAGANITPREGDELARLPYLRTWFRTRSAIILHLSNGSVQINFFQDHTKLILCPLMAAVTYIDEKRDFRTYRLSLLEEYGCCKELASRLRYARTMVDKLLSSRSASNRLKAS
Target sequence in this assay (Q96SW2 whole entry partner): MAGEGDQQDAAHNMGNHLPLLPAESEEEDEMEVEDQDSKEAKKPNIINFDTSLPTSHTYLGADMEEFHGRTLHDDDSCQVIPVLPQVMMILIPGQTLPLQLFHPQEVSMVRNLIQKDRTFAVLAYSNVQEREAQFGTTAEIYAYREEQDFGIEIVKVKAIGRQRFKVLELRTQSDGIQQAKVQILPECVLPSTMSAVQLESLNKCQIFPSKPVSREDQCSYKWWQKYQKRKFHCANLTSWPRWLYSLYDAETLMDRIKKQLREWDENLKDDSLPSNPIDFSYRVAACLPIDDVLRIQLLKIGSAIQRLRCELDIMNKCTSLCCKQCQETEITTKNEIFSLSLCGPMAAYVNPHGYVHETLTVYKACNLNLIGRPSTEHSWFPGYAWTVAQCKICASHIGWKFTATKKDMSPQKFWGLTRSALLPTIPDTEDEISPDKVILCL

[2] = biological target: T2, Protein cereblon/Bromodomain-containing protein 3 (Homo sapiens, UniProt Q15059+Q96SW2); test: Protac activity at CRBN/BRD3 in human HeLa cells assessed as BRD3 degradation measured after 36 hrs by Western blot analysis relative to control; assay type: cell-based
Target sequence in this assay (Q15059 2-726 limits assumed): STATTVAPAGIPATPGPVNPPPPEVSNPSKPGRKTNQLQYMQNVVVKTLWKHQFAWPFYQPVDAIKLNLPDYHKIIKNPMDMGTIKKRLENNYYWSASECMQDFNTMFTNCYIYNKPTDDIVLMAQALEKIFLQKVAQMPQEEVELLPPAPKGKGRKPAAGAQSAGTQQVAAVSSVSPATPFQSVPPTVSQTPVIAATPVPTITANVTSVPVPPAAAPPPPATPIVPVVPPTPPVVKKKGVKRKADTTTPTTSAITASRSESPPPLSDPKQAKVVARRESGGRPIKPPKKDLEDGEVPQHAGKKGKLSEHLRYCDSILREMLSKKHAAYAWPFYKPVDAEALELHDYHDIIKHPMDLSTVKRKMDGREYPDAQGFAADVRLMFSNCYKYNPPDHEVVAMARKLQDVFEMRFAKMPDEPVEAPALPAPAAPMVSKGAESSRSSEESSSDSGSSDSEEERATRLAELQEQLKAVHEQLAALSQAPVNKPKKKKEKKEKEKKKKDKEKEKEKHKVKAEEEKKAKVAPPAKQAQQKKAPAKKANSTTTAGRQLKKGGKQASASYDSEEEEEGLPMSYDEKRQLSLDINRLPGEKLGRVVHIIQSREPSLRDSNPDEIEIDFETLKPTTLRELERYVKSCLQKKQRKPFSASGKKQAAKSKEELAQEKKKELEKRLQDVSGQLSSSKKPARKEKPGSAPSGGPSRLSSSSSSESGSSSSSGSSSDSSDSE
Target sequence in this assay (Q96SW2 whole entry partner): as the sequence (Q96SW2 whole entry partner) above

[3] = biological target: T1, Protein cereblon/Serine/threonine-protein kinase PLK1; test: Protac activity at CRBN/PLK1 in human MDA-MB-231 cells assessed as PLK1 degradation at 10 nM measured after 36 hrs by Western blot analysis; assay type: cell-based
Target sequence in this assay (P53350 2-603 limits assumed): as the sequence (P53350 2-603 limits assumed) above
Target sequence in this assay (Q96SW2 whole entry partner): as the sequence (Q96SW2 whole entry partner) above

[4] = biological target: T3, Protein cereblon/Bromodomain-containing protein 4 (Homo sapiens, UniProt O60885+Q96SW2); test: Protac activity at CRBN/BRD4 in human 22Rv1 cells assessed as BRD4 degradation measured after 36 hrs by Western blot analysis relative to control; assay type: cell-based
[5] = biological target: T1, Protein cereblon/Serine/threonine-protein kinase PLK1; test: Protac activity at CRBN/PLK1 in human HeLa cells assessed as PLK1 degradation measured after 36 hrs by Western blot analysis; assay type: cell-based
MDA-MB-231 = test: Cytotoxicity against human MDA-MB-231 cells assessed as reduction in cell viability measured after 3 days by CCK-8 assay; assay type: functional, cell-based; details: MDA-MB-231, 72 h
CWR22R [6] = test: Antiproliferative activity against human 22Rv1 cells assessed as reduction in cell viability up to 100000 nM incubated for 24 hrs prior to compound washout measured after 1 week by crystal violet staining based assay; assay type: functional
[7] = biological target: T1, Protein cereblon/Serine/threonine-protein kinase PLK1; test: Protac activity at CRBN/PLK1 in human HeLa cells assessed as PLK1 degradation at 500 nM measured after 36 hrs by Western blot analysis; assay type: cell-based
Target sequence in this assay (P53350 2-603 limits assumed): as the sequence (P53350 2-603 limits assumed) above
Target sequence in this assay (Q96SW2 whole entry partner): as the sequence (Q96SW2 whole entry partner) above

K562 = test: Cytotoxicity against human K562 cells assessed as reduction in cell viability measured after 3 days by CCK-8 assay; assay type: functional, cell-based; details: K562, 72 h
[8] = biological target: T1, Protein cereblon/Serine/threonine-protein kinase PLK1; test: Protac activity at CRBN/PLK1 in human HeLa cells assessed as PLK1 degradation at 500 nM measured after 12 hrs by Western blot analysis; assay type: cell-based
Target sequence in this assay (P53350 2-603 limits assumed): as the sequence (P53350 2-603 limits assumed) above
Target sequence in this assay (Q96SW2 whole entry partner): as the sequence (Q96SW2 whole entry partner) above

[9] = biological target: T3, Protein cereblon/Bromodomain-containing protein 4; test: Protac activity at CRBN/BRD4 in human 22Rv1 cells assessed as BRD4 degradation at 50 nM measured after 2 hrs by Western blot analysis; assay type: cell-based
[10] = biological target: T1, Protein cereblon/Serine/threonine-protein kinase PLK1; test: Protac activity at CRBN/PLK1 in human 22Rv1 cells assessed as PLK1 degradation at 50 nM measured after 36 hrs by Western blot analysis; assay type: cell-based
Target sequence in this assay (P53350 2-603 limits assumed): as the sequence (P53350 2-603 limits assumed) above
Target sequence in this assay (Q96SW2 whole entry partner): as the sequence (Q96SW2 whole entry partner) above

CWR22R [11] = test: Down regulation of XIAP mRNA expression in human 22Rv1 cells at 20 to 100 nM measured after 36 hrs by RT-qPCR analysis; assay type: functional, cell-based; details: dose 20-100 nM
[12] = biological target: T3, Protein cereblon/Bromodomain-containing protein 4; test: Protac activity at CRBN/BRD4 in human HeLa cells assessed as BRD4 degradation at 500 nM measured after 12 hrs by Western blot analysis; assay type: cell-based
[13] = biological target: T2, Protein cereblon/Bromodomain-containing protein 3; test: Protac activity at CRBN/BRD3 in human HeLa cells assessed as BRD3 degradation measured after 36 hrs by Western blot analysis; assay type: cell-based
[14] = biological target: T3, Protein cereblon/Bromodomain-containing protein 4; test: Protac activity at CRBN/BRD4 in human MDA-MB-231 cells assessed as BRD4 degradation at 10 nM measured after 36 hrs by Western blot analysis; assay type: cell-based
[15] = biological target: T1, Protein cereblon/Serine/threonine-protein kinase PLK1; test: Protac activity at CRBN/PLK1 in human K562 cells assessed as PLK1 degradation at 10 nM measured after 36 hrs by Western blot analysis; assay type: cell-based
Target sequence in this assay (P53350 2-603 limits assumed): as the sequence (P53350 2-603 limits assumed) above
Target sequence in this assay (Q96SW2 whole entry partner): as the sequence (Q96SW2 whole entry partner) above

[16] = biological target: T4, Protein cereblon/Bromodomain-containing protein 2 (Homo sapiens, UniProt P25440+Q96SW2); test: Protac activity at CRBN/BRD2 in human HeLa cells assessed as BRD2 degradation measured after 36 hrs by Western blot analysis relative to control; assay type: cell-based
Target sequence in this assay (P25440 whole entry, looked up): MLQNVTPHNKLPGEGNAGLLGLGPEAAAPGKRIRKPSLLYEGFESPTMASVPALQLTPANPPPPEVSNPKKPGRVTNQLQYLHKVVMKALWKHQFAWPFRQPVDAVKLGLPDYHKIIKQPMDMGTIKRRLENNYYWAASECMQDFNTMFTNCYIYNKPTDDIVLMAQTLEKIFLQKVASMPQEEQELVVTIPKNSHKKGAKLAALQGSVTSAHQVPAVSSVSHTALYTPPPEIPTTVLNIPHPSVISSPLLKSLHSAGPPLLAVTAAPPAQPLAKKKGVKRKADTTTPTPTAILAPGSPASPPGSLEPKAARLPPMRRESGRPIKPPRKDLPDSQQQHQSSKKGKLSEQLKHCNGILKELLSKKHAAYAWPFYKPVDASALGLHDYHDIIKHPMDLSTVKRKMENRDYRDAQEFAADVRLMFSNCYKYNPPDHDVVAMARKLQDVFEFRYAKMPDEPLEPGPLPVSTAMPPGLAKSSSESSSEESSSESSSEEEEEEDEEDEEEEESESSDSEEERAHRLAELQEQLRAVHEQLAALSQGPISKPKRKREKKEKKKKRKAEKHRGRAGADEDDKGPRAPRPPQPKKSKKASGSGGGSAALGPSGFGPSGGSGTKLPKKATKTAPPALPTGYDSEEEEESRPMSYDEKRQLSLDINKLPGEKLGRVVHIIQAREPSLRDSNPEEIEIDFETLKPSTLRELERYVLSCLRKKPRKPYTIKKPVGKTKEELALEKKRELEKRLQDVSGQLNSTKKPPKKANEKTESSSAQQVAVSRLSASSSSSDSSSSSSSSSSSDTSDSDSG
Target sequence in this assay (Q96SW2 whole entry, looked up): as the sequence (Q96SW2 whole entry partner) above

[17] = biological target: T1, Protein cereblon/Serine/threonine-protein kinase PLK1; test: Protac activity at CRBN/PLK1 in human HeLa cells assessed as PLK1 degradation measured after 36 hrs by Western blot analysis relative to control; assay type: cell-based
[18] = biological target: T3, Protein cereblon/Bromodomain-containing protein 4; test: Protac activity at CRBN/BRD4 in human HeLa cells assessed as BRD4 degradation measured after 36 hrs by Western blot analysis relative to control; assay type: cell-based
[19] = biological target: T1, Protein cereblon/Serine/threonine-protein kinase PLK1; test: Protac activity at CRBN/PLK1 in human HeLa cells assessed as PLK1 degradation at 10 to 500 nM measured after 36 hrs by Western blot analysis; assay type: cell-based; details: dose 10-500 nM
[20] = biological target: T1, Protein cereblon/Serine/threonine-protein kinase PLK1; test: Protac activity at CRBN/PLK1 in human 22Rv1 cells assessed as PLK1 degradation at 2 uM measured after 12 to 24 hrs by Western blot analysis; assay type: cell-based; details: time 12-24 hrs
[21] = biological target: T3, Protein cereblon/Bromodomain-containing protein 4; test: Protac activity at CRBN/BRD4 in human 22Rv1 cells assessed as BRD4 degradation at 50 nM measured after 4 hrs by Western blot analysis; assay type: cell-based
[22] = biological target: T1, Protein cereblon/Serine/threonine-protein kinase PLK1; test: Protac activity at CRBN/PLK1 in human HeLa cells assessed as PLK1 degradation at 200 nM measured after 24 hrs by Western blot analysis; assay type: cell-based
HeLa = test: Cytotoxicity against human HeLa cells assessed as reduction in cell viability measured after 3 days by CCK-8 assay; assay type: functional, cell-based; details: 72 h
[23] = biological target: T4, Protein cereblon/Bromodomain-containing protein 2; test: Protac activity at CRBN/BRD2 in human HeLa cells assessed as BRD2 degradation measured after 36 hrs by Western blot analysis; assay type: cell-based
CWR22R [24] = test: Down regulation of PRDM1 mRNA expression in human 22Rv1 cells at 20 to 100 nM measured after 36 hrs by RT-qPCR analysis; assay type: functional, cell-based; details: dose 20-100 nM
[25] = biological target: T1, Protein cereblon/Serine/threonine-protein kinase PLK1; test: Protac activity at CRBN/PLK1 in human 22Rv1 cells assessed as PLK1 degradation measured after 36 hrs by Western blot analysis relative to control; assay type: cell-based
[26] = biological target: T1, Protein cereblon/Serine/threonine-protein kinase PLK1; test: Protac activity at CRBN/PLK1 in human 22Rv1 cells assessed as PLK1 degradation at 10 to 500 nM measured after 36 hrs by Western blot analysis; assay type: cell-based; details: dose 10-500 nM
[27] = biological target: T1, Protein cereblon/Serine/threonine-protein kinase PLK1; test: Protac activity at CRBN/PLK1 in human 22Rv1 cells assessed as PLK1 degradation at 50 nM measured after 24 hrs by Western blot analysis; assay type: cell-based
[28] = biological target: T3, Protein cereblon/Bromodomain-containing protein 4; test: Protac activity at CRBN/BRD4 in human K562 cells assessed as BRD4 degradation at 10 nM measured after 36 hrs by Western blot analysis; assay type: cell-based
[29] = biological target: T1, Protein cereblon/Serine/threonine-protein kinase PLK1; test: Protac activity at CRBN/PLK1 in human 22Rv1 cells assessed as PLK1 degradation measured after 36 hrs by Western blot analysis; assay type: cell-based
[30] = biological target: T2, Protein cereblon/Bromodomain-containing protein 3; test: Protac activity at CRBN/BRD3 in human HeLa cells assessed as BRD3 degradation at 3 nM measured after 36 hrs by Western blot analysis; assay type: cell-based
Target sequence in this assay (Q15059 2-726 limits assumed): as the sequence (Q15059 2-726 limits assumed) above
Target sequence in this assay (Q96SW2 whole entry partner): as the sequence (Q96SW2 whole entry partner) above

[31] = biological target: T2, Protein cereblon/Bromodomain-containing protein 3; test: Protac activity at CRBN/BRD3 in human 22Rv1 cells assessed as BRD3 degradation measured after 36 hrs by Western blot analysis relative to control; assay type: cell-based
Target sequence in this assay (Q15059 2-726 limits assumed): as the sequence (Q15059 2-726 limits assumed) above
Target sequence in this assay (Q96SW2 whole entry partner): as the sequence (Q96SW2 whole entry partner) above

[32] = biological target: T2, Protein cereblon/Bromodomain-containing protein 3; test: Protac activity at CRBN/BRD3 in human 22Rv1 cells assessed as BRD3 degradation measured after 36 hrs by Western blot analysis; assay type: cell-based
[33] = biological target: T3, Protein cereblon/Bromodomain-containing protein 4; test: Protac activity at CRBN/BRD4 in human HeLa cells assessed as BRD4 degradation at 20 nM measured after 24 hrs by Western blot analysis; assay type: cell-based
[34] = biological target: T3, Protein cereblon/Bromodomain-containing protein 4; test: Protac activity at CRBN/BRD4 in human 22Rv1 cells assessed as down regulation of MYC gene expression at 20 to 100 nM measured after 36 hrs by RT-qPCR analysis; assay type: cell-based; details: dose 20-100 nM
[35] = biological target: T3, Protein cereblon/Bromodomain-containing protein 4; test: Protac activity at CRBN/BRD4 in human HeLa cells assessed as BRD4 degradation at 3 nM measured after 36 hrs by Western blot analysis; assay type: cell-based
[36] = biological target: T3, Protein cereblon/Bromodomain-containing protein 4; test: Protac activity at CRBN/BRD4 in human HeLa cells assessed as BRD4 degradation at 10 nM measured after 36 hrs by Western blot analysis; assay type: cell-based
[37] = biological target: T3, Protein cereblon/Bromodomain-containing protein 4; test: Protac activity at CRBN/BRD4 in human HeLa cells assessed as BRD4 degradation measured after 36 hrs by Western blot analysis; assay type: cell-based
CWR22R [38] = test: Cytotoxicity against human 22Rv1 cells assessed as reduction in cell viability measured after 3 days by CCK-8 assay; assay type: functional, cell-based; details: 22Rv1, 72 h
CWR22R [39] = test: Effect on P21 mRNA expression in human 22Rv1 cells at 20 to 100 nM measured after 36 hrs by RT-qPCR analysis; assay type: functional, cell-based; details: dose 20-100 nM
[40] = biological target: T4, Protein cereblon/Bromodomain-containing protein 2; test: Protac activity at CRBN/BRD2 in human 22Rv1 cells assessed as BRD2 degradation measured after 36 hrs by Western blot analysis relative to control; assay type: cell-based
Target sequence in this assay (P25440 whole entry, looked up): as the sequence (P25440 whole entry, looked up) above
Target sequence in this assay (Q96SW2 whole entry, looked up): as the sequence (Q96SW2 whole entry partner) above

[41] = biological target: T3, Protein cereblon/Bromodomain-containing protein 4; test: Protac activity at CRBN/BRD4 in human 22Rv1 cells assessed as BRD4 degradation measured after 36 hrs by Western blot analysis; assay type: cell-based
[42] = biological target: T4, Protein cereblon/Bromodomain-containing protein 2; test: Protac activity at CRBN/BRD2 in human 22Rv1 cells assessed as BRD2 degradation measured after 36 hrs by Western blot analysis; assay type: cell-based
CWR22R [43] = test: Down regulation of Bcl-2 mRNA expression in human 22Rv1 cells at 20 to 100 nM measured after 36 hrs by RT-qPCR analysis; assay type: functional, cell-based; details: dose 20-100 nM
[44] = biological target: T4, Protein cereblon/Bromodomain-containing protein 2; test: Protac activity at CRBN/BRD2 in human HeLa cells assessed as BRD2 degradation at 3 nM measured after 36 hrs by Western blot analysis; assay type: cell-based
Target sequence in this assay (P25440 whole entry, looked up): as the sequence (P25440 whole entry, looked up) above
Target sequence in this assay (Q96SW2 whole entry, looked up): as the sequence (Q96SW2 whole entry partner) above

T3 sequence (Q96SW2 whole entry, looked up, other chains not shown): as the sequence (Q96SW2 whole entry partner) above

CC[C@@H]1C(=O)N(C)c2cnc(Nc3ccc(C(=O)NC4CCN(CCCCCCCC(=O)Nc5cccc6c5C(=O)N(C5CCC(=O)NC5=O)C6=O)CC4)cc3OC)nc2N1C1CCCC1 (some centres not stated)
Activity [1]: Active | Activity [2]: 93.3% | Activity [3]: Active | Activity [4]: 96.5% | DC50 [5]: 1.64 nM | pIC50 (MDA-MB-231): 6.56 | Activity (CWR22R [6]): Active; Antiproliferative Effect Was Enhanced Even After 1 Week | Activity [7]: 92% | pIC50 (K562): 7.28 | Activity [8]: 28% | Activity [9]: Active; Effectively Reduced The Protein Level | Activity [10]: Active; Profound Degradation Observed | Activity (CWR22R [11]): Active | Activity [12]: 95% | DC50 [13]: 1.74 nM | Activity [14]: Active | Activity [15]: Active | Activity [16]: 82.8% | Activity [17]: 78.6% | Activity [18]: 93.4% | Activity [19]: Active; Higher Degradation Observed At 36 Hrs | Activity [20]: Active | Activity [21]: Active; Near-Complete Depletion Of Brd4 Observed | Activity [22]: Active; Moderate Effect Observed | pIC50 (HeLa): 7.36 | DC50 [23]: 6.45 nM | Activity (CWR22R [24]): Active | Activity [25]: 78% | Activity [26]: Active; Higher Degradation Observed At 36 Hrs | Activity [27]: Not active; No Significant Effect Observed | Activity [28]: Active | DC50 [29]: 4.68 nM | Activity [30]: Active | Activity [31]: 89.9% | DC50 [32]: 9.45 nM | Activity [33]: Active; Demonstrated Most Potent Efficacy | Activity [34]: Active; Nearly Complete Down Regulation Observed At 20 Nm | Activity [35]: Active | Activity [36]: Active | DC50 [37]: 1.03 nM | pIC50 (CWR22R [38]): 7.35 | Activity (CWR22R [39]): inactive | Activity [40]: 91.5% | DC50 [41]: 1.56 nM | DC50 [42]: 1.63 nM | Activity (CWR22R [43]): Active | Activity [44]: Active
